Where a SMILES comes first, the peptide text is derived from it. [ ]: non-standard residue; d: D form. The star is where a group is joined. Propanoyl(3-(4-F-phenyl)) = O=C(CCc1ccc(F)cc1)*; Acryloyl(3-(pyridin-3-yl)) = O=C(C=Cc1cccnc1)*; Propanoyl(3-(4-Cl-Ph)) = O=C(CCc1ccc(Cl)cc1)*; 2Naphthoyl(6-OH) = O=C(c1ccc2cc(O)ccc2c1)*; Hydrocinnamoyl(4-Me) = Cc1ccc(CCC(=O)*)cc1; X6 = O=C(/C=C\c1ccc([N+](=O)[O-])cc1)*; X36 = O=C(C=Cc1ccc(OS(=O)(=O)O)cc1)*; X15 = O=C(/C=C\c1ccc(C(F)(F)F)cc1)*; X20 = CC(=O)Oc1ccc2cc(C(=O)*)ccc2c1; X22 = O=C(CCc1cccc(OS(=O)(=O)O)c1)*; Hydrocinnamoyl = O=C(CCc1ccccc1)*; X17 = COc1ccc(/C=C\C(=O)*)c(OC)c1; NMeF = CN[C@@H](Cc1ccccc1)C(=O)O; X30 = O=C(CCc1ccc(C(F)(F)F)cc1)*; X10 = O=C(/C=C\c1ccc(Cl)cc1Cl)*; X31 = COc1ccc(/C=C\C(=O)*)cc1OC; X37 = O=C(C=Cc1c[nH]c2ccccc12)*; X7 = CN(C)c1ccc(/C=C\C(=O)*)cc1; X11 = O=C(/C=C\c1ccc(O)cc1)*; X18 = O=C(c1cc2ccccc2[nH]1)*; X19 = O=C(/C=C\c1ccccc1)*; X27 = O=C(Cc1ccc(O)cc1)*; X5 = O=C(CCc1cccc(O)c1)*; Boc = CC(C)(C)OC(=O)*

One may read the IC50 as the concentration needed to halve the response being measured. Higher therefore signals weaker potency.

This assay has as its target Gastrin/cholecystokinin type B receptor (Cavia porcellus). The assay is described as follows: Inhibition of specific binding of [125I]BH-CCK-8 in guinea pig cortex.
With `CC(C)(C)OC(=O)N[C@@H](Cc1c[nH]c2ccccc12)C(=O)N[C@@H](CCCCNC(=O)Cc1ccc(O)cc1)C(=O)N[C@@H](CC(=O)O)C(=O)N[C@@H](Cc1ccccc1)C(N)=O` [3-{2-[2-tert-Butoxycarbonylamino-3-(1H-indol-3-yl)-propionylamino]-6-[2-(4-hydroxy-phenyl)-acetylamino]-hexanoylamino}-N-(1-carbamoyl-2-phenyl-ethyl)-succinamic acid; hydrate] (Boc-WK(X27)DF-NH2), the IC50 stood at 0.48 µM.

In the case of `CC(C)(C)OC(=O)N[C@@H](Cc1c[nH]c2ccccc12)C(=O)N[C@@H](CCCCNC(=O)c1cc2ccccc2[nH]1)C(=O)N[C@@H](CC(=O)O)C(=O)N[C@@H](Cc1ccccc1)C(N)=O` (Boc-WK(X18)DF-NH2), the IC50 worked out at 2.1 µM.

Molecule `CC(C)(C)OC(=O)N[C@@H](Cc1c[nH]c2ccccc12)C(=O)N[C@@H](CCCCNC(=O)CCc1cccc(OS(=O)(=O)O)c1)C(=O)N[C@@H](CC(=O)O)C(=O)N[C@@H](Cc1ccccc1)C(N)=O` [3-{2-[2-tert-Butoxycarbonylamino-3-(1H-indol-3-yl)-propionylamino]-6-[3-(3-sulfooxy-phenyl)-propionylamino]-hexanoylamino}-N-(1-carbamoyl-2-phenyl-ethyl)-succinamic acid; NH40H.hydrate] (Boc-WK(X22)DF-NH2) came in with a concentration for half-maximal inhibition (IC50) of 10 µM. For `CC(C)(C)OC(=O)N[C@@H](Cc1c[nH]c2ccccc12)C(=O)N[C@@H](CCCCNC(=O)/C=C\c1ccccc1)C(=O)N[C@@H](CC(=O)O)C(=O)N[C@@H](Cc1ccccc1)C(N)=O` [3-[2-[2-tert-Butoxycarbonylamino-3-(1H-indol-3-yl)-propionylamino]-6-(3-phenyl-acryloylamino)-hexanoylamino]-N-(1-carbamoyl-2-phenyl-ethyl)-succinamic acid.AcOH] (Boc-WK(X19)DF-NH2), the half-inhibitory concentration (IC50) was 1.8 µM. Take `CC(C)(C)OC(=O)N[C@@H](Cc1c[nH]c2ccccc12)C(=O)N[C@@H](CCCCNC(=O)CCc1ccc(Cl)cc1)C(=O)N[C@@H](CC(=O)O)C(=O)N[C@@H](Cc1ccccc1)C(N)=O` [3-{2-[2-tert-Butoxycarbonylamino-3-(1H-indol-3-yl)-propionylamino]-6-[3-(4-chloro-phenyl)-propionylamino]-hexanoylamino}-N-(1-carbamoyl-2-phenyl-ethyl)-succinamic acid; hydrate] (Boc-WK(Propanoyl(3-(4-Cl-Ph)))DF-NH2): the IC50 was found to be 7 µM.

In turn, `CC(C)(C)OC(=O)N[C@@H](Cc1c[nH]c2ccccc12)C(=O)N[C@@H](CCCCNC(=O)CCc1ccc(C(F)(F)F)cc1)C(=O)N[C@@H](CC(=O)O)C(=O)N[C@@H](Cc1ccccc1)C(N)=O` [3-{2-[2-tert-Butoxycarbonylamino-3-(1H-indol-3-yl)-propionylamino]-6-[3-(4-trifluoromethyl-phenyl)-propionylamino]-hexanoylamino}-N-(1-carbamoyl-2-phenyl-ethyl)-succinamic acid; hydrate] (Boc-WK(X30)DF-NH2) displayed an IC50 of 19 µM.

Consider `CN(C)c1ccc(/C=C\C(=O)NCCCC[C@H](NC(=O)[C@H](Cc2c[nH]c3ccccc23)NC(=O)OC(C)(C)C)C(=O)N[C@@H](CC(=O)O)C(=O)N[C@@H](Cc2ccccc2)C(N)=O)cc1` [3-{2-[2-tert-Butoxycarbonylamino-3-(1H-indol-3-yl)-propionylamino]-6-[3-(4-dimethylamino-phenyl)-acryloylamino]-hexanoylamino}-N-(1-carbamoyl-2-phenyl-ethyl)-succinamic acid; hydrate] (Boc-WK(X7)DF-NH2), for which the IC50 was 2.1 µM. With `CC(=O)Oc1ccc2cc(C(=O)NCCCC[C@H](NC(=O)[C@H](Cc3c[nH]c4ccccc34)NC(=O)OC(C)(C)C)C(=O)N[C@@H](CC(=O)O)C(=O)N[C@@H](Cc3ccccc3)C(N)=O)ccc2c1` (Boc-WK(X20)DF-NH2) the figure was 1.4 µM; with `CC(C)(C)OC(=O)N[C@@H](Cc1c[nH]c2ccccc12)C(=O)N[C@@H](CCCCNC(=O)C=Cc1c[nH]c2ccccc12)C(=O)N[C@@H](CC(=O)O)C(=O)N[C@@H](Cc1ccccc1)C(N)=O` (Boc-WK(X37)DF-NH2), 4.7 µM; with `CC(C)(C)OC(=O)N[C@@H](Cc1c[nH]c2ccccc12)C(=O)N[C@@H](CCCCNC(=O)CCc1cccc(O)c1)C(=O)N[C@@H](CC(=O)O)C(=O)N[C@@H](Cc1ccccc1)C(N)=O` [3-{2-[2-tert-Butoxycarbonylamino-3-(1H-indol-3-yl)-propionylamino]-6-[3-(3-hydroxy-phenyl)-propionylamino]-hexanoylamino}-N-(1-carbamoyl-2-phenyl-ethyl)-succinamic acid; hydarte] (Boc-WK(X5)DF-NH2), 3 µM. `CN(C(=O)[C@H](CC(=O)O)NC(=O)[C@H](CCCCNC(=O)c1ccc2cc(O)ccc2c1)NC(=O)[C@H](Cc1c[nH]c2ccccc12)NC(=O)OC(C)(C)C)[C@@H](Cc1ccccc1)C(N)=O` (Boc-WK(2Naphthoyl(6-OH))D[NMeF]-NH2): the IC50 was determined as 0.73 µM. With `Cc1ccc(CCC(=O)NCCCC[C@H](NC(=O)[C@H](Cc2c[nH]c3ccccc23)NC(=O)OC(C)(C)C)C(=O)N[C@@H](CC(=O)O)C(=O)N[C@@H](Cc2ccccc2)C(N)=O)cc1` [3-[2-[2-tert-Butoxycarbonylamino-3-(1H-indol-3-yl)-propionylamino]-6-(3-p-tolyl-propionylamino)-hexanoylamino]-N-(1-carbamoyl-2-phenyl-ethyl)-succinamic acid] (Boc-WK(Hydrocinnamoyl(4-Me))DF-NH2) the figure was 10 µM; with `CC(C)(C)OC(=O)N[C@@H](Cc1c[nH]c2ccccc12)C(=O)N[C@@H](CCCCNC(=O)/C=C\c1ccc(O)cc1)C(=O)N[C@@H](CC(=O)O)C(=O)N[C@@H](Cc1ccccc1)C(N)=O` [3-{2-[2-tert-Butoxycarbonylamino-3-(1H-indol-3-yl)-propionylamino]-6-[3-(4-hydroxy-phenyl)-acryloylamino]-hexanoylamino}-N-(1-carbamoyl-2-phenyl-ethyl)-succinamic acid] (Boc-WK(X11)DF-NH2), 0.73 µM; with `CC(C)(C)OC(=O)N[C@@H](Cc1c[nH]c2ccccc12)C(=O)N[C@@H](CCCCNC(=O)/C=C\c1ccc(Cl)cc1Cl)C(=O)N[C@@H](CC(=O)O)C(=O)N[C@@H](Cc1ccccc1)C(N)=O` [3-{2-[2-tert-Butoxycarbonylamino-3-(1H-indol-3-yl)-propionylamino]-6-[3-(2,4-dichloro-phenyl)-acryloylamino]-hexanoylamino}-N-(1-carbamoyl-2-phenyl-ethyl)-succinamic acid; hydrate] (Boc-WK(X10)DF-NH2), 5 µM. As for `CN(C(=O)[C@H](CC(=O)O)NC(=O)[C@H](CCCCNC(=O)C=Cc1ccc(OS(=O)(=O)O)cc1)NC(=O)[C@H](Cc1c[nH]c2ccccc12)NC(=O)OC(C)(C)C)[C@@H](Cc1ccccc1)C(N)=O` (Boc-WK(X36)D[NMeF]-NH2), the figure is 1 µM; as for `CN(C(=O)[C@H](CC(=O)O)NC(=O)[C@H](CCCCNC(=O)C=Cc1cccnc1)NC(=O)[C@H](Cc1c[nH]c2ccccc12)NC(=O)OC(C)(C)C)[C@@H](Cc1ccccc1)C(N)=O` (Boc-WK(Acryloyl(3-(pyridin-3-yl)))D[NMeF]-NH2), 0.12 µM. With `COc1ccc(/C=C\C(=O)NCCCC[C@H](NC(=O)[C@H](Cc2c[nH]c3ccccc23)NC(=O)OC(C)(C)C)C(=O)N[C@@H](CC(=O)O)C(=O)N[C@@H](Cc2ccccc2)C(N)=O)c(OC)c1` [3-{2-[2-tert-Butoxycarbonylamino-3-(1H-indol-3-yl)-propionylamino]-6-[3-(2,4-dimethoxy-phenyl)-acryloylamino]-hexanoylamino}-N-(1-carbamoyl-2-phenyl-ethyl)-succinamic acid; hydrate] (Boc-WK(X17)DF-NH2) the figure was 3 µM; with `CC(C)(C)OC(=O)N[C@@H](Cc1c[nH]c2ccccc12)C(=O)N[C@@H](CCCCNC(=O)/C=C\c1ccc([N+](=O)[O-])cc1)C(=O)N[C@@H](CC(=O)O)C(=O)N[C@@H](Cc1ccccc1)C(N)=O` [3-{2-[2-tert-Butoxycarbonylamino-3-(1H-indol-3-yl)-propionylamino]-6-[3-(4-nitro-phenyl)-acryloylamino]-hexanoylamino}-N-(1-carbamoyl-2-phenyl-ethyl)-succinamic acid; hydrate] (Boc-WK(X6)DF-NH2), 4.4 µM; with `CC(C)(C)OC(=O)N[C@@H](Cc1c[nH]c2ccccc12)C(=O)N[C@@H](CCCCNC(=O)/C=C\c1ccc(C(F)(F)F)cc1)C(=O)N[C@@H](CC(=O)O)C(=O)N[C@@H](Cc1ccccc1)C(N)=O` [3-{2-[2-tert-Butoxycarbonylamino-3-(1H-indol-3-yl)-propionylamino]-6-[3-(4-trifluoromethyl-phenyl)-acryloylamino]-hexanoylamino}-N-(1-carbamoyl-2-phenyl-ethyl)-succinamic acid; hydrate] (Boc-WK(X15)DF-NH2), 5.3 µM.

Regarding `CC(C)(C)OC(=O)N[C@@H](Cc1c[nH]c2ccccc12)C(=O)N[C@@H](CCCCNC(=O)CCc1ccc(F)cc1)C(=O)N[C@@H](CC(=O)O)C(=O)N[C@@H](Cc1ccccc1)C(N)=O` [3-{2-[2-tert-Butoxycarbonylamino-3-(1H-indol-3-yl)-propionylamino]-6-[3-(4-fluoro-phenyl)-propionylamino]-hexanoylamino}-N-(1-carbamoyl-2-phenyl-ethyl)-succinamic acid; hydrate] (Boc-WK(Propanoyl(3-(4-F-phenyl)))DF-NH2), the concentration for half-maximal inhibition (IC50) was 9.9 µM.

The molecule `CC(C)(C)OC(=O)N[C@@H](Cc1c[nH]c2ccccc12)C(=O)N[C@@H](CCCCNC(=O)CCc1ccccc1)C(=O)N[C@@H](CC(=O)O)C(=O)N[C@@H](Cc1ccccc1)C(N)=O` [3-[2-[2-tert-Butoxycarbonylamino-3-(1H-indol-3-yl)-propionylamino]-6-(3-phenyl-propionylamino)-hexanoylamino]-N-(1-carbamoyl-2-phenyl-ethyl)-succinamic acid.2AcOH] (Boc-WK(Hydrocinnamoyl)DF-NH2) had an IC50 of 5.9 µM.

Turning to `COc1ccc(/C=C\C(=O)NCCCC[C@H](NC(=O)[C@H](Cc2c[nH]c3ccccc23)NC(=O)OC(C)(C)C)C(=O)N[C@@H](CC(=O)O)C(=O)N[C@@H](Cc2ccccc2)C(N)=O)cc1OC` [3-{2-[2-tert-Butoxycarbonylamino-3-(1H-indol-3-yl)-propionylamino]-6-[3-(3,4-dimethoxy-phenyl)-acryloylamino]-hexanoylamino}-N-(1-carbamoyl-2-phenyl-ethyl)-succinamic acid; hydrate] (Boc-WK(X31)DF-NH2), the concentration for half-maximal inhibition (IC50) is 4 µM.
